US20150119410A1, “BIOMARKERS OF RESPONSE TO NAE INHIBITORS” (MILLENNIUM PHARMACEUTICALS, INC., priority 2011, published 2015)

Tests used:
Assay in all cases: Cell line panel 1 viability screen
Assay type in all cases: cell-based
NCI-H2405 = NCI-H2405 (lung)
Procedure: (§1) To support clinical development and identify potential biomarkers of tumor sensitivity or resistance, two large cancer cell line panels (Panel 1, N=653 (McDermott et al. (2007) PNAS 104:19936-19941); Panel 2, N=240 (O'Day et al. (2010) Fourth AACR International Conference on Molecular Diagnostics in Cancer Therapeutic Development)) were treated with MLN4924 and cell viability data (IC50, EC50, and POC—Percentage of Control) were generated.
(§2) Panel 1 (McDermott et al., supra). The cell lines were exposed to three MLN4924 concentrations (20 nM, 200 nM, and 2 μM) for 72 hours. Viability, i.e., cell number, was quantified by measuring fluorescence of a cell-permeant nucleic acid stain. Mean of triplicate values for each sample were taken and compared to DMSO control to calculate percentage of control. In the results, control or no activity value is given a value of about 1, sensitivity is indicated by a value less than 1, with 0 as death of the entire cell population and resistance indicated by a value greater than 1. A continuum of viability values was obtained for each concentration, so some values were selected as cut-offs for final determination of sensitivity or resistance. For example, median POC values of less than the median value of all POC's recorded in the panel (<0.34) indicated sensitivity, values of 0.34 to 0.75 indicated borderline sensitivity, values greater than the 3rd quartile of all POC's in the panel (>0.75) insensitivity or resistance. […] Final judgment of cell line as sensitive, insensitive or resistant was determined by its viability at 2 μM.

MKN1 = MKN1 (Stomach)
Procedure: as §1, §2

COLO-678 = COLO-678 (large_intestine)
Procedure: as §1, §2

SW1573 = SW1573 (lung)
Procedure: as §1, §2

MIA-PaCa-2 = MIA-PaCa-2 (pancreas)
Procedure: as §1, §2

HuCCT1 = HuCCT1 (Liver)
Procedure: as §1, §2

KYSE-450 = KYSE-450 (oesophagus)
Procedure: as §1, §2

COLO-205 = tested on: COLO-205
Procedure: as §1, §2

SN12C = SN12C (kidney)
Procedure: as §1, §2

647-V = 647-V (urinary_tract)
Procedure: as §1, §2

ESS-1 = ESS-1 (Uterus)
Procedure: as §1, §2

ACHN = ACHN (kidney)
Procedure: as §1, §2

AsPC-1 = AsPC-1 (Pancreas)
Procedure: as §1, §2

HCC1806 = HCC1806 (breast)
Procedure: as §1, §2

SW837 = conditions: Homo sapiens; SW837 (intestine); 2 μM MLN4924, 72 hours; DMSO control about 1
Procedure: as §1, §2

PANC-03-27 = PANC-03-27 (pancreas)
Procedure: as §1, §2

YAPC = YAPC (pancreas)
Procedure: as §1, §2

HT55 = conditions: Homo sapiens; HT55 (intestine); 2 μM MLN4924, 72 hours; DMSO control about 1
Procedure: as §1, §2

NUGC-3 = NUGC-3 (stomach)
Procedure: as §1, §2

[1] = Homo sapiens, 2 μM MLN4924, 72 hours, DMSO control about 1

**Q.** What does the source list for `NS(=O)(=O)OC[C@@H]1C[C@@H](n2ccc3c(N[C@H]4CCc5ccccc54)ncnc32)C[C@@H]1O` [MLN4924, ((1S,2S,4R)-4-{4-[(1S)-2,3-dihydro-1H-inden-1-ylamino]-7H-pyrrolo[2,3-d]pyrimidin-7-yl}-2-hydroxycyclopentyl)methyl sulphamate]?
**A.** viability at 2 µM (NCI-H2405; [1]): 25.5%; Phenotype (NCI-H2405; SMAD4 mutant): sensitive (median POC values of less than the median value of all POC's recorded in the panel (<0.34) indicated sensitivity); viability at 2 µM (MKN1; Homo sapiens, MKN-1, 2 μM MLN4924, 72 hours, DMSO control about 1): 46.3%; Phenotype (MKN1; FBXW7 mutant): insensitive (values of 0.34 to 0.75 indicated borderline sensitivity); Phenotype (COLO-678; SMAD4 mutant): resistant (values greater than the 3rd quartile of all POC's in the panel (>0.75) insensitivity or resistance); viability at 2 µM (COLO-678; [1]): 81.4%; viability at 2 µM (SW1573; [1]): 11.1%; Phenotype (SW1573; NF2 and SMAD4 mutant): sensitive (median POC values of less than the median value of all POC's recorded in the panel (<0.34) indicated sensitivity); viability at 2 µM (MIA-PaCa-2; [1]): 11.5%; Phenotype (MIA-PaCa-2; KDM6A mutant): sensitive (median POC values of less than the median value of all POC's recorded in the panel (<0.34) indicated sensitivity); viability at 2 µM (HuCCT1; Homo sapiens, HuCCT-1, 2 μM MLN4924, 72 hours, DMSO control about 1): 12.6%; Phenotype (HuCCT1; FBXW7 mutant): sensitive (median POC values of less than the median value of all POC's recorded in the panel (<0.34) indicated sensitivity); viability at 2 µM (KYSE-450; [1]): 14.3%; Phenotype (KYSE-450; KDM6A mutant): sensitive (median POC values of less than the median value of all POC's recorded in the panel (<0.34) indicated sensitivity); Phenotype (COLO-205; COLO-205 (large_intestine), SMAD4 mutant): sensitive (median POC values of less than the median value of all POC's recorded in the panel (<0.34) indicated sensitivity); viability at 2 µM (COLO-205; Homo sapiens, COLO-205 (intestine), 2 μM MLN4924, 72 hours, DMSO control about 1): 14.4%; viability at 2 µM (SN12C; [1]): 33.6%; Phenotype (SN12C; NF2 mutant): sensitive (median POC values of less than the median value of all POC's recorded in the panel (<0.34) indicated sensitivity); Phenotype (647-V; NF2 mutant): sensitive (median POC values of less than the median value of all POC's recorded in the panel (<0.34) indicated sensitivity); viability at 2 µM (647-V; [1]): 3.8%; Phenotype (ESS-1; FBXW7 mutant): sensitive (median POC values of less than the median value of all POC's recorded in the panel (<0.34) indicated sensitivity); viability at 2 µM (ESS-1; [1]): 5.29%; Phenotype (ACHN; NF2 mutant): sensitive (median POC values of less than the median value of all POC's recorded in the panel (<0.34) indicated sensitivity); viability at 2 µM (ACHN; [1]): 6.21%; Phenotype (AsPC-1; FBXW7 mutant): resistant (values greater than the 3rd quartile of all POC's in the panel (>0.75) insensitivity or resistance); viability at 2 µM (AsPC-1; Homo sapiens, ASPC1, 2 μM MLN4924, 72 hours, DMSO control about 1): 98.9%; Phenotype (HCC1806; KDM6A mutant): sensitive (median POC values of less than the median value of all POC's recorded in the panel (<0.34) indicated sensitivity); viability at 2 µM (HCC1806; [1]): 1.16%; viability at 2 µM (SW837): 70.2%; viability at 2 µM (PANC-03-27; [1]): 7.24%; Phenotype (PANC-03-27; SMAD4 mutant): sensitive (median POC values of less than the median value of all POC's recorded in the panel (<0.34) indicated sensitivity); viability at 2 µM (YAPC; [1]): 18.7%; Phenotype (YAPC; SMAD4 mutant): sensitive (median POC values of less than the median value of all POC's recorded in the panel (<0.34) indicated sensitivity); viability at 2 µM (HT55): 51.4%; viability at 2 µM (NUGC-3; [1]): 9.8%; Phenotype (NUGC-3; NF2 mutant): sensitive (median POC values of less than the median value of all POC's recorded in the panel (<0.34) indicated sensitivity)
